In the test the test system is Rhythmic Bladder Contraction of Rats. Briefly: Effect on rhythmic bladder contraction of rats (urethane-anesthetized, saline infusion into bladder, intravesical pressure). The following applies: anesthetized female SD rats. Format: in vivo. As to the method: Effect on Rhythmic Bladder Contraction of Rats
Female SD rats were anesthetized with an intraperitoneal injection of urethane (1.0 g/kg). A polyethylene tube was inserted from urethral opening to the bladder and the tube was fixed by ligating. Physiological saline was appropriately infused via the tube (rate of infusion: about 0.2 ml/min; maximum dose: about 1.5 ml/rat) to induce rhythmic contraction of bladder. The rhythmic contraction of bladder was monitored by measuring the intravesical pressure through the polyethylene tube inserted into the bladder. After confirming that stable rhythmic contraction occurred at least 10 times, each test compound was intravenously administered at a doseof 1 ml/kg. If the intravesical pressure became, within 10 minutes from the administration of the test compound, not more than 50% of the intravesical pressure at the time point immediately after the administration of the test compound, it was judged that […], and the time period until the intravesical pressure again became not less than 50% was defined as the rhythmic bladder contraction-inhibiting time. As the solvent for administration of the test compounds, 5% xylitol was used for test Compounds 1, 2, 3, 4, 5, 11, 12, 21, 23 and 24; physiological saline was used for test Compounds 6, 9, 10, 13, 14, 15, 16, 17, 18, 19, 20 and 22; 10% ethanol solution was used for test Compound 7; and 10% DMSO solution was used for test Compound 8. The solvents 5% xylitol solution, 10% ethanol solution and 10% DMSO solution, each of which is said to somewhat influence on the rhythmic bladder contraction-inhibiting time, were also tested at the dose of 1 ml/kg. […]

The mark [1] stands for this setting: 10 mg/kg intravenously, solvent 5% xylitol.
Setting [2] is: 3 mg/kg intravenously, solvent physiological saline.
The mark [3] stands for this setting: 10 mg/kg intravenously, solvent physiological saline.
[4] abbreviates: 1 mg/kg intravenously, solvent physiological saline.
The mark [5] stands for this setting: 30 mg/kg intravenously, solvent 5% xylitol.

Where a name gives a salt, the structure may show the parent alone.

For `Cc1c2c(nc3ccccc13)[C@@H]1Oc3c(O)ccc4c3[C@@]13CCN(C)[C@H](C4)[C@]3(O)C2` [Compound 4, 17-methyl-6,7-dehydro-4,5α-epoxy-3,14β-dihydroxy-6,7,2',3'-(4'-methylquinolino)morphinan methanesulfonic acid salt], under setting [1], the “Mean Rhythmic Bladder Contraction-inhibiting Time” value was 13.9 min.

Regarding `CN1CC[C@]23c4c5ccc(O)c4O[C@H]2c2nc4ccccc4cc2C[C@@]3(O)[C@H]1C5` [Compound 6, 17-methyl-6,7-dehydro-4,5α-epoxy-3,14β-dihydroxy-6,7,2',3'-quinolinomorphinane methanesulfonic acid salt], under setting [2], the “Mean Rhythmic Bladder Contraction-inhibiting Time” value was 24.1 min.

As to `Oc1ccc2c3c1O[C@H]1c4nc5ccccc5cc4C[C@@]4(O)[C@@H](C2)N(CC2CC2)CC[C@]314` [Compound 21, 17-cyclopropylmethyl-6,7-dehydro-4,5α-epoxy-3,14β-dihydroxy-6,7,2',3'-quinolinomorphinan methanesulfonic acid salt], the “Mean Rhythmic Bladder Contraction-inhibiting Time” value under setting [1] is given as 10.0 min.

Consider `C=CCN1CC[C@]23c4c5ccc(O)c4O[C@H]2c2nc4ccccc4cc2C[C@@]3(O)[C@H]1C5` [Compound 22, 17-allyl-6,7-dehydro-4,5α-epoxy-3,14β-dihydroxy-6,7,2',3'-quinolinomorphinan methanesulfonic acid salt], for which the “Mean Rhythmic Bladder Contraction-inhibiting Time” value under setting [3] was 1.4 min.

Take `CN1CC[C@]23c4c5ccc(O)c4O[C@H]2c2nc4ccccc4c(N)c2C[C@@]3(O)[C@H]1C5` [Compound 2, 17-methyl-6,7-dehydro-4,5α-epoxy-3,14β-dihydroxy-6,7,2',3'-(4'-aminoquinolino)morphinan methanesulfonic acid salt]: the “Mean Rhythmic Bladder Contraction-inhibiting Time” value under setting [1] is reported as 4.5 min.

With `Cc1ccc(CCN2CC[C@]34c5c6ccc(O)c5O[C@H]3c3nc5ccccc5cc3C[C@@]4(O)[C@H]2C6)cc1` [Compound 23, 17-(4-methylphenyl)ethyl-6,7-dehydro-4,5α-epoxy-3,14β-dihydroxy-6,7,2',3'-quinolinomorphinan methanesulfonic acid salt], the “Mean Rhythmic Bladder Contraction-inhibiting Time” value under setting [1] is given as 9.2 min.

Regarding `CC(=O)O[C@@]12Cc3cc4ccccc4nc3[C@@H]3Oc4c(O)ccc5c4[C@@]31CCN(C)[C@@H]2C5` [Compound 17, 17-methyl-6,7-dehydro-4,5α-epoxy-3-hydroxy-14β-acetoxy-6,7,2',3'-quinolinomorphinan tartaric acid salt], the “Mean Rhythmic Bladder Contraction-inhibiting Time” value under setting [4] was found to be 7.4 min.

Regarding `CN1CC[C@]23c4c5ccc(O)c4O[C@H]2c2nc4ccc(Cl)cc4cc2C[C@@]3(O)[C@H]1C5` [Compound 11, 17-methyl-6,7-dehydro-4,5α-epoxy-3,14β-dihydroxy-6,7,2',3'-(6'-chloroquinolino)morphinan methanesulfonic acid salt], the “Mean Rhythmic Bladder Contraction-inhibiting Time” value under setting [1] came out at 12.4 min.

For `CN1CC[C@]23c4c5ccc(O)c4O[C@H]2c2nc4ccccc4c(O)c2C[C@@]3(O)[C@H]1C5` [Compound 5, 17-methyl-6,7-dehydro-4,5α-epoxy-3,14β-dihydroxy-6,7,2',3'-(4'-hydroxyquinolino)morphinan methanesulfonic acid salt], the “Mean Rhythmic Bladder Contraction-inhibiting Time” value under setting [5] stood at 5.7 min.

Regarding `CN1CC[C@]23c4c5cccc4O[C@H]2c2nc4ccccc4cc2C[C@@]3(O)[C@H]1C5` [Compound 20, 17-methyl-6,7-dehydro-4,5α-epoxy-14β-hydroxy-6,7,2',3'-quinolinomorphinan tartaric acid salt], the “Mean Rhythmic Bladder Contraction-inhibiting Time” value under setting [4] amounted to 11.1 min.

Turning to `Oc1ccc2c3c1O[C@H]1c4nc5ccccc5cc4C[C@@]4(O)[C@@H](C2)N(CCc2cccs2)CC[C@]314` [Compound 8, 17-(2-thienyl)ethyl-6,7-dehydro-4,5α-epoxy-3,14β-dihydroxy-6,7,2',3'-quinolinomorphinan methanesulfonic acid salt], under “10 mg/kg intravenously, solvent 10% DMSO solution”, the “Mean Rhythmic Bladder Contraction-inhibiting Time” value was 19.5 min.

As to `Cc1cccc2cc3c(nc12)[C@@H]1Oc2c(O)ccc4c2[C@@]12CCN(C)[C@H](C4)[C@]2(O)C3` [Compound 13, 17-methyl-6,7-dehydro-4,5α-epoxy-3,14β-dihydroxy-6,7,2',3'-(8'-methylquinolino)morphinan methanesulfonic acid salt], the “Mean Rhythmic Bladder Contraction-inhibiting Time” value under setting [4] is given as 6.5 min.

With `COc1ccc2c3c1O[C@H]1c4nc5ccccc5cc4C[C@@]4(O)[C@@H](C2)N(C)CC[C@]314` [Compound 19, 17-methyl-6,7-dehydro-4,5α-epoxy-3-methoxy-14β-hydroxy-6,7,2',3'-quinolinomorphinan tartaric acid salt], the “Mean Rhythmic Bladder Contraction-inhibiting Time” value under setting [4] is 7.7 min.

As for `CC(=O)Oc1ccc2c3c1O[C@H]1c4nc5ccccc5cc4C[C@@]4(O)[C@@H](C2)N(C)CC[C@]314` [Compound 18, 17-methyl-6,7-dehydro-4,5α-epoxy-3-acetoxy-14β-hydroxy-6,7,2',3'-quinolinomorphinane tartaric acid salt], the “Mean Rhythmic Bladder Contraction-inhibiting Time” value under setting [4] was 6.6 min.

With `Oc1ccc2c3c1O[C@H]1c4nc5ccccc5cc4C[C@@]4(O)[C@@H](C2)N(CCc2ccc(F)cc2)CC[C@]314` [Compound 24, 17-(4-fluorophenyl)ethyl-6,7-dehydro-4,5α-epoxy-3,14β-dihydroxy-6,7,2',3'-quinolinomorphinan methanesulfonic acid salt], the “Mean Rhythmic Bladder Contraction-inhibiting Time” value under setting [1] is recorded as 2.3 min.

`Oc1ccc2c3c1O[C@H]1c4nc5ccccc5cc4C[C@@]4(O)[C@@H](C2)N(CCc2ccccc2)CC[C@]314` [Compound 7, 17-phenethyl-6,7-dehydro-4,5 α-epoxy-3,14β-dihydroxy-6,7,2',3'-quinolinomorphinan methanesulfonic acid salt]: the “Mean Rhythmic Bladder Contraction-inhibiting Time” value (5 mg/kg intravenously, solvent 10% ethanol solution) is on record as 17.1 min.

For `CO[C@@]12Cc3cc4ccccc4nc3[C@@H]3Oc4c(O)ccc5c4[C@@]31CCN(C)[C@@H]2C5` [Compound 9, 17-methyl-6,7-dehydro-4,5 α-epoxy-3-hydroxy-14 β -methoxy-6,7,2',3'-quinolinomorphinan methanesulfonic acid salt], under setting [4], the “Mean Rhythmic Bladder Contraction-inhibiting Time” value turned out to be 7.3 min.

With `CN1CC[C@]23c4c5ccc(O)c4O[C@H]2c2nc4cccc(Cl)c4cc2C[C@@]3(O)[C@H]1C5` [Compound 12, 17-methyl-6,7-dehydro-4,5α-epoxy-3,14β-dihydroxy-6,7,2',3'-(5'-chloroquinolino)morphinan tartaric acid salt], the “Mean Rhythmic Bladder Contraction-inhibiting Time” value (0.3 mg/kg intravenously, solvent 5% xylitol) is reported as 14.6 min.

For the compound `CN1CC[C@]23c4c5ccc(O)c4O[C@H]2c2nc4c(F)cccc4cc2C[C@@]3(O)[C@H]1C5` [Compound 15, 17-methyl-6,7-dehydro-4,5α-epoxy-3,14β-dihydroxy-6,7,2',3'-(8'-fluoroquinolino)morphinan tartaric acid salt], the “Mean Rhythmic Bladder Contraction-inhibiting Time” value under setting [4] amounted to 10.7 min.

Consider `CC(=O)Oc1ccc2c3c1O[C@H]1c4nc5ccccc5cc4C[C@@]4(OC(C)=O)[C@@H](C2)N(C)CC[C@]314` [Compound 16, 17-methyl-6,7-dehydro-4,5α-epoxy-3,14β-diacetoxy-6,7,2',3'-quinolinomorphinan tartaric acid salt], for which the “Mean Rhythmic Bladder Contraction-inhibiting Time” value (0.3 mg/kg intravenously, solvent physiological saline) stood at 15.0 min.

For `Cc1ccc2nc3c(cc2c1)C[C@@]1(O)[C@H]2Cc4ccc(O)c5c4[C@@]1(CCN2C)[C@H]3O5` [Compound 14, 17-methyl-6,7-dehydro-4,5α-epoxy-3,14β-dihydroxy-6,7,2',3'-(6'-methylquinolino)morphinan methanesulfonic acid salt], the “Mean Rhythmic Bladder Contraction-inhibiting Time” value under setting [2] is reported as 12.3 min.

As to `CN1CC[C@]23c4c5ccc(O)c4O[C@H]2c2nc4c(Cl)cccc4cc2C[C@@]3(O)[C@H]1C5` [Compound 10, 17-methyl-6,7-dehydro-4,5α-epoxy-3,14β-dihydroxy-6,7,2',3'-(8'-chloroquinolino)morphinan methanesulfonic acid salt], the “Mean Rhythmic Bladder Contraction-inhibiting Time” value under setting [3] is recorded as 7.4 min.

`Oc1ccc2c3c1O[C@H]1c4nc5c(cc4C[C@@]4(O)[C@@H](C2)N(CC2CC2)CC[C@]314)cc1c2c(cccc25)CC1` [Compound 3, 17-cyclopropylmethyl-6,7-dehydro-4,5α-epoxy-3,14β-dihydroxy-6,7,2',3'-(6',6"-ethano-7',8'-benzoquinolino)morphinan methanesulfonic acid salt]: under “20 mg/kg intravenously, solvent 5% xylitol”, the “Mean Rhythmic Bladder Contraction-inhibiting Time” value stood at 5.0 min.

For `O=C1Nc2c3c(nc4cccc1c24)[C@@H]1Oc2c(O)ccc4c2[C@@]12CCN(CC1CC1)[C@H](C4)[C@]2(O)C3` [Compound 1, 17-cyclopropylmethyl-6,7-dehydro-4,5α-epoxy-3,14β-dihydroxy-6,7,2',3'-[4',5'-[imino(oxomethano)]quinolino]morphinan hydrochloric acid salt], under setting [5], the “Mean Rhythmic Bladder Contraction-inhibiting Time” value worked out at 6.2 min.

The values are drawn from EP1203771A1, “REMEDIES OR PREVENTIVES FOR FREQUENT URINATION OR URINARY INCONTINENCE” (TORAY INDUSTRIES, INC., priority 1999, dated 2001).
